What was measured:
Assay in all cases: MIC and checkerboard (FIC) assay
CA MRSA W113 = system: CA MRSA W113
HA MRSA W239 = system: HA MRSA W239
CA MRSA W47 = system: CA MRSA W47
HA MRSA W235 = system: HA MRSA W235
HA MRSA W232 = system: HA MRSA W232
CA MRSA W48 = system: CA MRSA W48
CA MRSA W114 = system: CA MRSA W114
[1] = system: S. aureus SA-APH2″-AAC6′ (APH2), resistant to gentamicin
CA MRSA W44 = system: CA MRSA W44
CA MRSA W106 = system: CA MRSA W106
MRSA SA-ST239 = system: MRSA SA-ST239
HA MRSA W231 = system: HA MRSA W231
HA MRSA W238 = system: HA MRSA W238
CA MRSA W101 = system: CA MRSA W101
[2] = system: clinical fusidic acid resistant MRSA strain 73621; assay type: cell-based, Staphylococcus aureus; conditions: for FIC / MIC combine: 73621
CA-MRSA strain ST30 = assay type: cell-based, Staphylococcus aureus
[3] = system: clinical fusidic acid resistant MRSA strain 82356; assay type: cell-based, Staphylococcus aureus; conditions: for FIC / MIC combine: 82356
CA MRSA W45 = system: CA MRSA W45
CA MRSA W103 = system: CA MRSA W103
[4] = Staphylococcus aureus, MRSA, read-out: MIC alone
[5] = APH2″-AAC6′, ECG with WQD-169 (Kuraridin)
[6] = ST239, ECG with WQD-169 (Kuraridin)

## O=C(O[C@@H]1Cc2c(O)cc(O)cc2O[C@@H]1c1ccc(O)c(O)c1)c1cc(O)c(O)c(O)c1 [ECG, epicatechin gallate]
CA MRSA W113; [4]
  MIC: 512 µg/mL
CA MRSA W113; W113, ECG with Kur
  FIC: 0.002
  MIC combine: 1 µg/mL
HA MRSA W239; [4]
  MIC: 512 µg/mL
HA MRSA W239; W239, ECG with Kur
  FIC: 0.002
  MIC combine: 1 µg/mL
HA MRSA W239; W239, ECG+Kur+Van
  FIC: 0.0009
  MIC combine: 0.5 µg/mL
HA MRSA W239; W239, Table 5
  MIC alone: 512 µg/mL
CA MRSA W47; [4]
  MIC: 512 µg/mL
CA MRSA W47; W47, ECG with Kur
  FIC: 0.004
  MIC combine: 2 µg/mL
CA MRSA W47; W47, ECG+Kur+Van
  FIC: 0.0004
  MIC combine: 0.25 µg/mL
CA MRSA W47; W47, Table 5
  MIC alone: 512 µg/mL
HA MRSA W235; [4]
  MIC: 512 µg/mL
HA MRSA W235; W235, ECG with Kur
  FIC: 0.002
  MIC combine: 1 µg/mL
HA MRSA W232; [4]
  MIC: 512 µg/mL
HA MRSA W232; W232, ECG with Kur
  FIC: 0.008
  MIC combine: 4 µg/mL
HA MRSA W232; W232, ECG+Kur+Van
  FIC: 0.03
  MIC combine: 8 µg/mL
HA MRSA W232; W232, Table 5
  MIC alone: 512 µg/mL
CA MRSA W48; [4]
  MIC: 512 µg/mL
CA MRSA W48; W48, ECG with Kur
  FIC: 0.002
  MIC combine: 1 µg/mL
CA MRSA W48; W48, ECG+Kur+Van
  FIC: 0.002
  MIC combine: 1 µg/mL
CA MRSA W48; W48, Table 5
  MIC alone: 512 µg/mL
CA MRSA W114; [4]
  MIC: 512 µg/mL
CA MRSA W114; W114, ECG with Kur
  FIC: 0.002
  MIC combine: 1 µg/mL
[1]; APH2 (gentamicin resistant)
  MIC alone: 512 µg/mL
[1]; APH2, ECG+Kur+Gen
  FIC: 0.0005
  MIC combine: 0.25 µg/mL
[1]; APH2, ECG+Kur, no Gen
  FIC: 0.0009
  MIC combine: 0.5 µg/mL
[1]; APH2, Kuraridin with ECG
  FIC: 0.0009
  MIC combine: 0.5 µg/mL
[1]; APH2″-AAC6′, ECG with WQD-164
  FIC: 0.001
  MIC combine: 1 µg/mL
[1]; APH2″-AAC6′, ECG with WQD-165
  FIC: 0.0009
  MIC combine: 0.5 µg/mL
[1]; [5]
  FIC: 0.007
  MIC combine: 4 µg/mL
[1]; APH2″-AAC6′, ECG with WQD-175
  FIC: 0.0009
  MIC combine: 0.5 µg/mL
[1]; Staphylococcus aureus
  MIC90: 8 µg/mL
[1]; Staphylococcus aureus, read-out: MIC 99.9
  MIC99: > 512 µg/mL
[1]; Staphylococcus aureus, read-out: MIC alone
  MIC: 512 µg/mL
[1]; Strain APH2″-AAC6′, Table 9
  MIC alone: 512 µg/mL
CA MRSA W44; [4]
  MIC: 512 µg/mL
CA MRSA W44; W44, ECG with Kur
  FIC: 0.004
  MIC combine: 2 µg/mL
CA MRSA W44; W44, ECG+Kur+Van
  FIC: 0.0004
  MIC combine: 0.25 µg/mL
CA MRSA W44; W44, Table 5
  MIC alone: 512 µg/mL
CA MRSA W106; [4]
  MIC: 512 µg/mL
CA MRSA W106; W106, ECG with Kur
  FIC: 0.002
  MIC combine: 1 µg/mL
MRSA SA-ST239; ST239, ECG with Kur
  FIC: 0.004
  MIC combine: 2 µg/mL
MRSA SA-ST239; ST239, ECG with WQD-164
  FIC: 0.001
  MIC combine: 2 µg/mL
MRSA SA-ST239; ST239, ECG with WQD-165
  FIC: 0.0009
  MIC combine: 0.5 µg/mL
MRSA SA-ST239; [6]
  FIC: 0.007
  MIC combine: 4 µg/mL
MRSA SA-ST239; ST239, ECG with WQD-175
  FIC: 0.0009
  MIC combine: 0.5 µg/mL
MRSA SA-ST239; ST239, ECG+Kur+Van
  FIC: 0.0004
  MIC combine: 0.25 µg/mL
MRSA SA-ST239; ST239, Table 5
  MIC alone: 512 µg/mL
MRSA SA-ST239; Staphylococcus aureus, MRSA
  MIC90: 16 µg/mL
MRSA SA-ST239; Staphylococcus aureus, MRSA, read-out: MIC 99.9
  MIC99: > 512 µg/mL
MRSA SA-ST239; [4]
  MIC: 512 µg/mL
MRSA SA-ST239; Strain ST239, Table 9
  MIC alone: 512 µg/mL
HA MRSA W231; [4]
  MIC: 512 µg/mL
HA MRSA W231; W231 (gentamicin resistant)
  MIC alone: 512 µg/mL
HA MRSA W231; W231, ECG with Kur
  FIC: 0.016
  MIC combine: 8 µg/mL
HA MRSA W231; W231, ECG+Kur+Gen
  FIC: 0.0004
  MIC combine: 0.25 µg/mL
HA MRSA W231; W231, ECG+Kur, no Gen
  FIC: 0.008
  MIC combine: 4 µg/mL
HA MRSA W231; W231, Table 5
  MIC alone: 512 µg/mL
HA MRSA W238; [4]
  MIC: 512 µg/mL
HA MRSA W238; W238 (gentamicin resistant)
  MIC alone: 512 µg/mL
HA MRSA W238; W238, ECG with Kur
  FIC: 0.002
  MIC combine: 1 µg/mL
HA MRSA W238; W238, ECG+Kur+Gen
  FIC: 0.0004
  MIC combine: 0.25 µg/mL
HA MRSA W238; W238, ECG+Kur+Van
  FIC: 0.0004
  MIC combine: 0.25 µg/mL
HA MRSA W238; W238, ECG+Kur, no Gen
  FIC: 0.0004
  MIC combine: 0.5 µg/mL
HA MRSA W238; W238, Table 5
  MIC alone: 512 µg/mL
CA MRSA W101; [4]
  MIC: 512 µg/mL
CA MRSA W101; W101, ECG with Kur
  FIC: 0.002
  MIC combine: 1 µg/mL
[2]; ECG+Kur+Fus
  FIC: 0.004
  MIC combine: 0.25 µg/mL
[2]; ECG+Kur, no Fus
  FIC: 0.003
  MIC combine: 16 µg/mL
[2]; [4]
  MIC: 512 µg/mL
CA-MRSA strain ST30; ST30, ECG with Kur
  FIC: 0.0004
  MIC combine: 0.25 µg/mL
CA-MRSA strain ST30; ST30, ECG+Kur+Van
  FIC: 0.0004
  MIC combine: 0.25 µg/mL
CA-MRSA strain ST30; ST30, Table 5
  MIC alone: 512 µg/mL
CA-MRSA strain ST30; [4]
  MIC: 512 µg/mL
[3]; ECG+Kur+Fus
  FIC: 0.008
  MIC combine: 0.25 µg/mL
[3]; ECG+Kur, no Fus
  FIC: 0.016
  MIC combine: 8 µg/mL
[3]; [4]
  MIC: 512 µg/mL
CA MRSA W45; [4]
  MIC: 512 µg/mL
CA MRSA W45; W45, ECG with Kur
  FIC: 0.002
  MIC combine: 1 µg/mL
CA MRSA W45; W45, ECG+Kur+Van
  FIC: 0.0004
  MIC combine: 0.25 µg/mL
CA MRSA W45; W45, Table 5
  MIC alone: 512 µg/mL
CA MRSA W103; [4]
  MIC: 512 µg/mL
CA MRSA W103; W103, ECG with Kur
  FIC: 0.002
  MIC combine: 1 µg/mL
